ChEMBL document CHEMBL1201862, “PubChem BioAssay data set” (2004)
Active and inactive are the calls of the source.

Key:
[1] = biological target: Luciferin 4-monooxygenase (Photinus pyralis, UniProt P08659); assay: inhibition of purified Photinus pyralis luciferase – biochemical, luminescence, dose response (AID 1891)
[2] = Luminescence Cell-Based Dose Confirmation HTS to Identify Inhibitors of Platelet Dense Granule Release. [Related pubchem assays: 1663 (Primary HTS), 1678 (Summary of Project)]; type: functional
Fatty acid synthase = Fatty acid synthase (Homo sapiens, UniProt P49327); assay: inhibition of human FAS-TE enzyme activity – biochemical, kinetic fluorescence intensity, dose response (AID 624326); type: functional;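 note: rate of fluorescence rise from hydrolysis of a fluorogenic O-methyl fluorescein ester substrate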
Sequence of Fatty acid synthase (P49327 whole entry): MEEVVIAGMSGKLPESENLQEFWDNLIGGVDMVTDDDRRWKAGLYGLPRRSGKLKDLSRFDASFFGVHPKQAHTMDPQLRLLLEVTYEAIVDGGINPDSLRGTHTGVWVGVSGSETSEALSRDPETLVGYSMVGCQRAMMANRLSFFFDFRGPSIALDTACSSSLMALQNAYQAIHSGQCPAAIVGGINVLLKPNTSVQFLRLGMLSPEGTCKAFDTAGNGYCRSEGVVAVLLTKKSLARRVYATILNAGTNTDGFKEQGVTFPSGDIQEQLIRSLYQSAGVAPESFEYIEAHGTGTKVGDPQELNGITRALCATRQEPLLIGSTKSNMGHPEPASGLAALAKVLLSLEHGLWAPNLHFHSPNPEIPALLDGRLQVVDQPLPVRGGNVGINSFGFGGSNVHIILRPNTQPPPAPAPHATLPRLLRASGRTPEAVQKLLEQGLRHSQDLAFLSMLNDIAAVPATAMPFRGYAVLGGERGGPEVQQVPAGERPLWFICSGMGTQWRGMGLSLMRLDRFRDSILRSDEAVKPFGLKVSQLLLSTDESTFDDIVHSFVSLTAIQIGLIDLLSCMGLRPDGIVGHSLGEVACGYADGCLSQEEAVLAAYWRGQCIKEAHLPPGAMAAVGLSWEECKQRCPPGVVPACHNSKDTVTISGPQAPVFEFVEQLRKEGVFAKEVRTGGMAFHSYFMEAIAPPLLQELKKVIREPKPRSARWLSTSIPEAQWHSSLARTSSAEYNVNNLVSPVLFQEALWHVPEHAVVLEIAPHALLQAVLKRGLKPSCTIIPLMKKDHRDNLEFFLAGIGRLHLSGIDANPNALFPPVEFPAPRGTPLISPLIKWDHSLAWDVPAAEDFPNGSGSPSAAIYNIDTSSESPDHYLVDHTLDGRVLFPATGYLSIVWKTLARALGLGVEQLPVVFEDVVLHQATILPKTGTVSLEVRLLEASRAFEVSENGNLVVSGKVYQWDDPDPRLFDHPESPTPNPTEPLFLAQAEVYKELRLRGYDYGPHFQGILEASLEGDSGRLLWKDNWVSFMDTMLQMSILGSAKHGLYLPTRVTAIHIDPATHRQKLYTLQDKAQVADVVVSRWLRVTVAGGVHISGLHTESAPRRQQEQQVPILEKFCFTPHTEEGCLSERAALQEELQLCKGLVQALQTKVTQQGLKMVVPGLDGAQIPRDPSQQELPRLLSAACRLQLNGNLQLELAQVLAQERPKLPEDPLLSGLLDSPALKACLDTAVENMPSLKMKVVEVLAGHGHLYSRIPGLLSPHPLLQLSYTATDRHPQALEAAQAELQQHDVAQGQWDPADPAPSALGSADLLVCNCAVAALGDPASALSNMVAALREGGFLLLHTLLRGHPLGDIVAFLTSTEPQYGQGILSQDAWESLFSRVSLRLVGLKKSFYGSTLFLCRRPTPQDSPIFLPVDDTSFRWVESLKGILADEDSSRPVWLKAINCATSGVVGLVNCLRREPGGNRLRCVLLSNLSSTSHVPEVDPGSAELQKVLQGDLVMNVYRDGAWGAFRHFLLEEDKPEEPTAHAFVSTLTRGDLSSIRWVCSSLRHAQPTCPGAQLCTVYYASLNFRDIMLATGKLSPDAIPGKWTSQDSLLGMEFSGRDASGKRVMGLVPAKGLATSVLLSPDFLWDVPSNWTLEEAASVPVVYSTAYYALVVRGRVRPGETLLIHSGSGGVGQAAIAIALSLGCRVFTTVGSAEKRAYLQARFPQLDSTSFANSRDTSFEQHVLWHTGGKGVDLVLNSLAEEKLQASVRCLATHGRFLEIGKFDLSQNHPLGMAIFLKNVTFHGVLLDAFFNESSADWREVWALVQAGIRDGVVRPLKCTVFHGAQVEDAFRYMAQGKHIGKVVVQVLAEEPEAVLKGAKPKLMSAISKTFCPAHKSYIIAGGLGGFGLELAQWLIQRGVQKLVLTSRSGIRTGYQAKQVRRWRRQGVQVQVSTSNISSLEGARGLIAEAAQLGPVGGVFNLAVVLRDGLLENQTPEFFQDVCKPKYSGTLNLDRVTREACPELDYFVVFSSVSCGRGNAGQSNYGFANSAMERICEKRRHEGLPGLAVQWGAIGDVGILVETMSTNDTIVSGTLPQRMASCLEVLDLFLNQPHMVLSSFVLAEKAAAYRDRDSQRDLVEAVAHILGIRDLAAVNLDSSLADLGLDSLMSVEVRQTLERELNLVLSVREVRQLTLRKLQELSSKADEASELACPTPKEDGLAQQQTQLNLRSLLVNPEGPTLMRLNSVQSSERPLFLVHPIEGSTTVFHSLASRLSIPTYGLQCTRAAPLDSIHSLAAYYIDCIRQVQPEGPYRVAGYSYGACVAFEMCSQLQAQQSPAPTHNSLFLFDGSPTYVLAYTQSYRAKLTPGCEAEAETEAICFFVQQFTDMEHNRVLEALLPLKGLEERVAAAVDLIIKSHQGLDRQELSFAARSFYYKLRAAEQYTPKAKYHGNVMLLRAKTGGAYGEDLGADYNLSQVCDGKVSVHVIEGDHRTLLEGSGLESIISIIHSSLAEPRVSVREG

[3] = test system: Streptococcus sp. 'group A'; assay: Streptococcus pyogenes SK(-)GAS viability under kanamycin – luminescence, BacTiterGlo, confirmation, counter-screen for streptokinase expression inhibitor project, dose response (AID 1900); type: functional, organism-based
Streptococcus = assay: GAS UMAA2166 growth inhibition – luminescence, BacTiterGlo, counter-screen for streptokinase expression inhibitor project, dose response (AID 1915); type: functional, organism-based;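 note: potency for reduction of bacterial viability or growth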
[4] = Luminescence Cell-Based Dose Retest to Confirm Inhibitors of Cancer Stem Cells. [Related pubchem assays (depositor defined):AID2717, AID2721]; type: functional; settings: Homo sapiens
[5] = biological target: Heat shock protein HSP 90-alpha (Homo sapiens, UniProt P07900); type: functional, organism-based
[6] = biological target: T1, Ubiquitin-conjugating enzyme E2 N (Homo sapiens, UniProt P61088); type: functional;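 note: Dose-response confirmation in a TR-FRET assay detecting UBC13-driven polyubiquitin chain formation, inhibition measured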
T1 sequence (P61088 whole entry): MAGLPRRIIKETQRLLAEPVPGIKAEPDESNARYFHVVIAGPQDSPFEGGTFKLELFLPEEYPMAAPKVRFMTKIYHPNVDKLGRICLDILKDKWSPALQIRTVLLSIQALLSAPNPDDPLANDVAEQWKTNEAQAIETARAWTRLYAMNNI

H9c2 = assay: cells; type: functional, cell-based; settings: Rattus norvegicus, H9c2, Myocardium
[7] = microbe, parasite or virus in culture; type: functional; settings: Mycobacterium tuberculosis
[8] = P. falciparum Dd2 growth inhibitors, dose response, SYBR Green, cherry-picked samples (AID 1159567); type: functional, cell-based

Sequence of Luciferin 4-monooxygenase (P08659 whole entry): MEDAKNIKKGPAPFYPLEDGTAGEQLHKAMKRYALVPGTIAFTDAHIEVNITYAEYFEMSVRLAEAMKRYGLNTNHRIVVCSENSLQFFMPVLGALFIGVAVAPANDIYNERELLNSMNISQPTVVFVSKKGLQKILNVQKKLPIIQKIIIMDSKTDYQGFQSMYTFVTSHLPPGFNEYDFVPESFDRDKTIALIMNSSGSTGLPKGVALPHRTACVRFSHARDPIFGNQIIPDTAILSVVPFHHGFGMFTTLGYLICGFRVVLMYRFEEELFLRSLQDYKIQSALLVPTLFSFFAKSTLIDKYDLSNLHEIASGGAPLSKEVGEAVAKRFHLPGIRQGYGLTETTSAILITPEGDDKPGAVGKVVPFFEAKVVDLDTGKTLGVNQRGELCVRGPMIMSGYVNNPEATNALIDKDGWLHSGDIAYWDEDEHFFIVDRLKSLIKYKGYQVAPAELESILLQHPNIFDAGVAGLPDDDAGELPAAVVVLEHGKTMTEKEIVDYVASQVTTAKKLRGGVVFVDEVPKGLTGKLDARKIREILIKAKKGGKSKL

## Cc1ccc(C2SCCN2C(=O)c2ccc([N+](=O)[O-])cc2)cc1 (stereo unspecified)
[1]
  EC50: > 112 µM (not active)
[2]
  EC50: > 112 µM (not active)

## CC(/C=C/c1ccc(Cl)o1)=C\C(=O)O
[1]
  EC50: > 112 µM (not active)
[2]
  EC50: > 112 µM (not active)

## CN(C(=O)Nc1ccc(Cl)cc1Cl)[C@H]1c2cc(Br)ccc2OC[C@H]1CO
Fatty acid synthase
  IC50: 11.3 µM (active)

## O=C(CSc1ccc(-c2ccco2)nn1)c1ccccc1
[1]
  EC50: > 112 µM (not active)
[2]
  EC50: > 112 µM (not active)

## Oc1ccccc1C1=NN(c2ccccc2)C(c2ccccc2)C1 (stereo unspecified)
[3]
  EC50: 4.06 µM (active)
Streptococcus
  EC50: 6.93 µM (active)
[4]
  AC50: 1.29 µM (active)
[5]
  AC50: 4.3 µM (active)

## CCCC(=O)Nc1cc(C(F)(F)F)ccc1N1CCOCC1
[1]
  EC50: > 112 µM (not active)
[2]
  EC50: > 112 µM (not active)

## C#CCNC(=O)C1=C[C@H](c2cn(C(C)=O)c3ccccc23)C[C@H](OCc2ccc(CO)cc2)O1
[6]
  IC50: > 20 µM (inactive)

## Cc1ccc(-c2noc(CCC(=O)Nc3ccccc3N3CCN(C)CC3)n2)cc1
[6]
  IC50: > 20 µM (inactive)

## O=C(CCc1nc(O)c2ccccc2n1)NNC(=O)COc1cccc(F)c1
H9c2
  IC50: > 79 µM (inactive)

## O=C(Nc1ccccc1)c1nc[nH]c1C(=O)NCCCCNC(=O)c1nc[nH]c1C(=O)Nc1ccccc1
H9c2
  IC50: > 79 µM (inactive)

## CSCCC(NC(=O)c1ccccc1Cl)C(=O)NNC(=O)c1csc(N2CCOCC2)n1 (stereo unspecified)
[6]
  IC50: > 20 µM (inactive)

## NC(=O)c1cccc(Nc2nc(C(N)COCc3ccccc3)cs2)n1 (stereo unspecified)
H9c2
  IC50: 19.8 µM (active)

## Cc1cc(C(=O)N/N=C/c2c(CO)cnc(C)c2O)c2ccccc2n1
H9c2
  IC50: > 79 µM (inactive)

## CCCCNC(=S)N(C)/N=C/c1ccc2c(c1)OCO2
[7]
  CC50: > 40 µM (active)
[4]
  AC50: 2.04 µM (active)

## COc1ccc(/N=C/c2cc(Cc3ccccc3Cl)cc([N+](=O)[O-])c2O)cc1OC
[5]
  AC50: 1.6 µM (active)

## CCOC(=O)c1ccc(/N=C2/S/C(=C\c3cc(C)n(-c4cccnc4)c3C)C(=O)N2C)cc1
[7]
  CC50: > 40 µM (active)

## CCC(=O)N(C)CCc1cc2c(c(OC)c1/C=N/NC(=O)c1ccccc1O)OCO2
[1]
  EC50: > 112 µM (not active)
[2]
  EC50: > 112 µM (not active)

## C[C@H]1CN([C@@H](C)CO)C(=O)c2c(c3ccccc3n2C)-c2ccccc2CO[C@@H]1CN(C)Cc1cccc(O)c1
[8]
  AC50: 3.24 µM (active)

## CCCC#Cc1ccc(CC[C@H]2O[C@H]3CC[C@H](CO)O[C@H]3C[C@@H]2n2cc(C(C)(C)O)nn2)cc1
[8]
  AC50: 16.8 µM (active)

## CC(C)NC(=O)N1[C@H](C#N)[C@H](c2ccccc2-c2ccc(F)cc2)[C@@H]1CO
[8]
  AC50: 3.57 µM (active)

## N#Cc1cccc(-c2ccc([C@@H]3[C@@H]4CN(C(=O)C5CCC5)C[C@H]3N4)cc2)c1
[8]
  AC50: 3.71 µM (active)

## C[C@@H]1CN([C@@H](C)CO)C(=O)c2c(c3ccccc3n2C)-c2ccccc2CO[C@H]1CN(C)Cc1cccc(C(=O)Nc2ccccc2N)c1
[8]
  AC50: 2.81 µM (active)
